Measured values from publication PMC10980263, “Cryo-EM structures of the human NaS1 and NaDC1 transporters revealed the elevator transport and allosteric regulation mechanism” (Science Advances, 2024).
Where a chain is given by its changes, count along the chain named.

Tests used:
NaDC1 [1] = target: T1, NaDC1 (Homo sapiens, UniProt Q13183, N476A); test: CD thermal melting at […] nm; type: binding; settings: absolute Tm in presence of citrate, not a shift
T1 construct: gene SLC13A2; full length, homodimer; N-terminal FLAG purified from HEK293F (structures, natural variant I550V); GFP and FLAG tagged in HEK293T for currents
T1 sequence (Q13183 1-592 N476A): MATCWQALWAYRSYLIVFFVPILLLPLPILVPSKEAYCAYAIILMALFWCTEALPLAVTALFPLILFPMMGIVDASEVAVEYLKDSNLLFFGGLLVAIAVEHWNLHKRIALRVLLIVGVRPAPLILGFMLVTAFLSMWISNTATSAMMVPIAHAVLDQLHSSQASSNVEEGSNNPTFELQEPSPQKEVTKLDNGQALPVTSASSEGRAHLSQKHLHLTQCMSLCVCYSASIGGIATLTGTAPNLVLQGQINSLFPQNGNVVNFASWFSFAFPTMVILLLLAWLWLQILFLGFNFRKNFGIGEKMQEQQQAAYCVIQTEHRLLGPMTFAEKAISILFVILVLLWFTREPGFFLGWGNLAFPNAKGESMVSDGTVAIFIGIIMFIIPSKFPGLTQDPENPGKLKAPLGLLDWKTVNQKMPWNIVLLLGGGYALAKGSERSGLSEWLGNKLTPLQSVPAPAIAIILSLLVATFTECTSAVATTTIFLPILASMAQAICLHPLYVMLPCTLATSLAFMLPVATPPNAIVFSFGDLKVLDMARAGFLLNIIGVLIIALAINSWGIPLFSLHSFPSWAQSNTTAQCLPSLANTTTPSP

NaDC1 [2] = target: T2, NaDC1 (Homo sapiens, UniProt Q13183, N141A); test: CD thermal melting at […] nm; type: binding; settings: absolute Tm in presence of citrate, not a shift
T2 construct: gene SLC13A2; full length, homodimer; N-terminal FLAG purified from HEK293F (structures, natural variant I550V); GFP and FLAG tagged in HEK293T for currents
T2 sequence (Q13183 1-592 N141A): T1 sequence (Q13183 1-592 N476A) with N141A, A476N

NaDC1 [3] = target: T3, NaDC1 (Homo sapiens, UniProt Q13183); test: whole-cell patch clamp, transfected HEK293T; type: cell-based; parameters: gene SLC13A2; full length, homodimer; GFP and FLAG tagged in HEK293T for currents; settings: gradient of citrate concentrations; 140 mM NaCl bath, pH 7.4
T3 sequence (Q13183 1-592): T1 sequence (Q13183 1-592 N476A) with A476N

NaDC1 [4] = target: T4, NaDC1 (Homo sapiens, UniProt Q13183, R108A); test: whole-cell patch clamp, transfected HEK293T; type: cell-based; settings: citrate-induced current; 140 mM NaCl bath, pH 7.4
T4 construct: gene SLC13A2; full length, homodimer; N-terminal FLAG purified from HEK293F (structures, natural variant I550V); GFP and FLAG tagged in HEK293T for currents
T4 sequence (Q13183 1-592 R108A): T1 sequence (Q13183 1-592 N476A) with R108A, A476N

O=C(O)CC(O)(CC(=O)O)C(=O)O [citrate]
Tm (NaDC1 [1]): 60.5 ± 0.7 °C
Tm (NaDC1 [2]): 61.3 ± 0.5 °C
whole-cell patch clamp, transfected HEK293T (NaDC1 [3]): wild-type (WT) NaDC1 is indeed capable of transporting citrate
whole-cell patch clamp, transfected HEK293T (NaDC1 [4]): The R108A mutant substantially reduced the citrate-induced current than WT in NaDC1
